{"source": "paper PMC5355960", "about": "“Specific inhibition of CK2α from an anchor outside the active site” (Chemical Science, 2016)", "key": {"CDK1/Cyclin B": {"tested_on": "CDK1/Cyclin B", "conditions": "read-out: IC50 CDK1/Cyclin B; ref J.Med. Chem. (2011) 54:2:635; cited from earlier work"}, "CLK1": {"tested_on": "CLK1", "conditions": "read-out: IC50 CLK1; ref PLOS ONE (2014) 9:4; cited from earlier work"}, "DAPK3": {"tested_on": "DAPK3", "conditions": "read-out: IC50 DAPK3; ref J.Med. Chem. (2011) 54:2:635; cited from earlier work"}, "HCT116 cells [1]": {"tested_on": "HCT116 cells", "conditions": "72 hours"}, "TBK1": {"tested_on": "TBK1", "conditions": "read-out: IC50 TBK1; ref J.Med. Chem. (2011) 54:2:635; cited from earlier work"}, "FLT3": {"tested_on": "FLT3", "conditions": "read-out: IC50 FLT3; ref J.Med. Chem. (2011) 54:2:635; cited from earlier work"}, "A549 cells [2]": {"tested_on": "A549 cells", "test": "cells", "conditions": "Homo sapiens, A549, 72 h"}, "238 kinases": {"tested_on": "238 kinases", "conditions": "cited from earlier work"}, "PIM1 [3]": {"tested_on": "PIM1", "conditions": "read-out: IC50 PIM1; ref Biorg. Med. Chem. Lett. (2011) 21;22;6687; cited from earlier work"}, "CK2α [4]": {"tested_on": "CK2α", "conditions": "read-out: IC50 CK2α; ref J.Med. Chem. (2011) 54:2:635; cited from earlier work"}, "Jurkat cells [5]": {"tested_on": "Jurkat cells", "conditions": "72 hours"}, "PIM2": {"tested_on": "PIM2", "conditions": "read-out: IC50 PIM2; ref Biorg. Med. Chem. Lett. (2011) 21;22;6687; cited from earlier work"}, "PIM1 [6]": {"tested_on": "PIM1", "conditions": "read-out: IC50 PIM1; ref J.Med. Chem. (2011) 54:2:635; cited from earlier work"}, "HCT116 cells [7]": {"tested_on": "HCT116 cells", "test": "cells", "conditions": "Homo sapiens, HCT-116, 72 h"}, "CDK2/Cyclin E": {"tested_on": "CDK2/Cyclin E", "conditions": "read-out: IC50 CDK2/Cyclin E; ref Eur. J. Med. Chem. (2014) 78:217-224; cited from earlier work"}, "CLK3 [8]": {"tested_on": "CLK3", "conditions": "read-out: IC50 CLK3; ref J.Med. Chem. (2011) 54:2:635; cited from earlier work"}, "Jurkat cells [9]": {"tested_on": "Jurkat cells", "test": "cells", "conditions": "Homo sapiens, 72 h"}, "A549 cells [10]": {"tested_on": "A549 cells", "conditions": "72 hours"}, "HIPK3": {"tested_on": "HIPK3", "conditions": "read-out: IC50 HIPK3; ref J.Med. Chem. (2011) 54:2:635; cited from earlier work"}, "CLK3 [11]": {"tested_on": "CLK3", "conditions": "read-out: IC50 CLK3; ref PLOS ONE (2014) 9:4; cited from earlier work"}, "102 kinases": {"tested_on": "102 kinases", "conditions": "cited from earlier work"}, "CK2α [12]": {"molecular_target": "CK2α (Homo sapiens, UniProt P68400)", "sequence (P68400 2-329)": "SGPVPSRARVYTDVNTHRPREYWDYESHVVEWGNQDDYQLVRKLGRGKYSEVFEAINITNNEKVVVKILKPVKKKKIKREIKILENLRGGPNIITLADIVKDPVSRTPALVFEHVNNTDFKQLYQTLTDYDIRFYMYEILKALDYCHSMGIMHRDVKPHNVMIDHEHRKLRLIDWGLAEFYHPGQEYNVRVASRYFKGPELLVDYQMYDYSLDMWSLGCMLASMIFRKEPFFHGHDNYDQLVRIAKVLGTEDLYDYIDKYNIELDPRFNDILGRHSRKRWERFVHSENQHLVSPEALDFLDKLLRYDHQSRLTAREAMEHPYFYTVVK", "conditions": "for ΔH / ΔS: ITC"}, "[13]": {"tested_on": "HCT116, Jurkat and A549 cells", "conditions": "A549 vs IC50 (for pro-CAM4066: IC50 of CAM4066)"}, "[14]": {"conditions": "HCT116, 2 × GI50, all time points (24, 48, 72 hours)"}}, "note": "Read-outs that look alike come from different tables or passages of the source."}
{"smiles": "O=C(O)c1ccc2c(c1)nc(Nc1cccc(Cl)c1)c1ccncc12", "note": "[CX4945]", "values": [{"measurement": "IC50", "setting": "CDK1/Cyclin B", "result": 56, "unit": "nM"}, {"measurement": "IC50", "setting": "CLK1", "result": 82, "unit": "nM"}, {"measurement": "inhibition of the phosphorylation of CDC37 Ser13", "setting": "Cdc37 phosphoserine 13; HCT116, 2 × GI50, 24 hours", "result": "reduced inhibition"}, {"measurement": "inhibition of the phosphorylation of CDC37 Ser13", "setting": "Cdc37 phosphoserine 13; [14]", "result": "very clear inhibition"}, {"measurement": "IC50", "setting": "DAPK3", "result": 17, "unit": "nM"}, {"measurement": "GI50", "setting": "HCT116 cells [1]", "result": 5000, "unit": "nM"}, {"measurement": "IC50", "setting": "TBK1", "result": 35, "unit": "nM"}, {"measurement": "IC50", "setting": "FLT3", "result": 55, "unit": "nM"}, {"measurement": "GI50", "setting": "A549 cells [2]", "result": 17000, "unit": "nM"}, {"measurement": "number of other kinases inhibited by 70% or greater", "setting": "238 kinases; 0.5 μM, screen size 238 kinases", "result": 26}, {"measurement": "number of other kinases inhibited with nanomolar IC50 values", "setting": "238 kinases", "result": "at least twelve"}, {"measurement": "Gini coefficient", "setting": "238 kinases; larger literature panel", "result": "[…]"}, {"measurement": "IC50", "setting": "PIM1 [3]", "result": 48, "unit": "nM"}, {"measurement": "IC50", "setting": "CK2α [4]", "result": "[…]"}, {"measurement": "GI50", "setting": "Jurkat cells [5]", "result": 4700, "unit": "nM"}, {"measurement": "IC50", "setting": "PIM2", "result": 186, "unit": "nM"}, {"measurement": "IC50", "setting": "PIM1 [6]", "result": 46, "unit": "nM"}, {"measurement": "GI50", "setting": "HCT116 cells [7]", "result": 4800, "unit": "nM"}, {"measurement": "inhibition of the phosphorylation of AKT1 Ser129", "setting": "AKT1 phosphoserine 129; [14]", "result": "very clear inhibition"}, {"measurement": "IC50", "setting": "CDK2/Cyclin E", "result": 1800, "unit": "nM"}, {"measurement": "IC50", "setting": "CLK3 [8]", "result": 41, "unit": "nM"}, {"measurement": "GI50", "setting": "Jurkat cells [9]", "result": 5000, "unit": "nM"}, {"measurement": "GI50", "setting": "A549 cells [10]", "result": 16600, "unit": "nM"}, {"measurement": "IC50", "setting": "HIPK3", "result": 45, "unit": "nM"}, {"measurement": "IC50", "setting": "CLK3 [11]", "result": 90, "unit": "nM"}]}
{"smiles": "O=C(O)c1ccc2c(c1)nc(Nc1cccc(C(F)(F)F)c1)c1nc(NC3CC3)ncc12", "note": "[CX5279]", "values": [{"measurement": "number of other kinases inhibited by 70% or greater", "setting": "102 kinases; 0.5 μM, 102 kinases", "result": 4}, {"measurement": "Gini coefficient", "setting": "102 kinases; larger literature panel", "result": 0.755}]}
{"smiles": "CCCOc1ccc(CN)cc1Cl.Cl", "note": "[compound 3]", "values": [{"measurement": "ΔH", "setting": "CK2α [12]", "result": -5.047, "unit": "kcal/mol"}, {"measurement": "ΔS", "setting": "CK2α [12]", "result": -2.28, "unit": "cal/mol/deg"}]}
{"smiles": "Cc1ccc(O)c(C(=O)O)c1", "note": "[compound 5]", "values": [{"measurement": "ΔH", "setting": "CK2α [12]", "result": -7.722, "unit": "kcal/mol"}, {"measurement": "ΔS", "setting": "CK2α [12]", "result": -6.51, "unit": "cal/mol/deg"}]}
{"smiles": "Nc1cccc(C(=O)O)c1", "note": "[compound 6]", "values": [{"measurement": "detectable binding by ITC", "setting": "CK2α [12]", "result": "no inhibition of phosphorylation at 500 μM or detectable binding by ITC"}]}
{"smiles": "COC(=O)c1cccc(NC(=O)CCNC(=O)CCNCc2ccc(-c3ccccc3)c(Cl)c2)c1", "note": "[pro-CAM4066]", "values": [{"measurement": "inhibition of the phosphorylation of CDC37 Ser13", "setting": "Cdc37 phosphoserine 13; HCT116, 2 × GI50, 48 and 72 hours", "result": "the inhibition did increase"}, {"measurement": "inhibition of the phosphorylation of CDC37 Ser13", "setting": "Cdc37 phosphoserine 13; HCT116, 2 × GI50, 24 hours", "result": "no inhibition"}, {"measurement": "GI50", "setting": "HCT116 cells [1]", "result": 8800, "unit": "nM"}, {"measurement": "GI50", "setting": "A549 cells [2]", "result": 20000, "unit": "nM"}, {"measurement": "GI50", "setting": "Jurkat cells [5]; listed as 8", "result": 6300, "unit": "nM"}, {"measurement": "GI50", "setting": "HCT116 cells [7]", "result": 9000, "unit": "nM"}, {"measurement": "inhibition of the phosphorylation of AKT1 Ser129", "setting": "AKT1 phosphoserine 129; HCT116, 2 × GI50, 24 hours", "result": "approximately 50%"}, {"measurement": "drop-off in the GI50 compared to the IC50", "setting": "[13]", "result": "19-60 fold"}, {"measurement": "GI50", "setting": "Jurkat cells [9]", "result": 6000, "unit": "nM"}, {"measurement": "GI50", "setting": "A549 cells [10]; listed as 8", "result": 20200, "unit": "nM"}]}
